Read-outs that look alike come from different tables or passages of the source.
Key:
adenovirus [1] = conditions: cited from earlier work
EGFR = experiment: Mercator Phosphoarray assay in non-infected A431 cells, EGFR; type: cell-based, Human
Protocol: (§1) Thus, A431 cells were infected overnight in serum-free medium with various doses of Adenovirus-GFP (MOI of about 1, c, about 10, b or about 500, a). As a negative control A431 cells were treated only with serum-free medium (mock control bar “d”). At 20 hrs post infection, the infected and non-infected A431 cells were washed and then stimulated with 32 nM EGF for 30 min (FIG. 8A), 25 nM epinephrine for 1 hr (FIG. 8B), or serum-free medium for 1 hr at ambient room temperature (column e in FIGS. 8A and 8B, cell non infected and untreated). Cells extracts were then prepared according to the recommended protocol and analyzed using Mercator™ phosphoarray assay. […] The letter labeled bars (a-e) represent: a=EFG/−adenovirus MOI 500, b=EFG/adenovirus MOI 10, c=EFG/adenovirus MOI 1, d=EFG-mock, and e=untreated cells. […] The letter labeled bars (a-e) are as above for FIG. 8A.

FAK = experiment: Mercator Phosphoarray assay in non-infected A431 cells, FAK; type: cell-based, Human
Protocol: as §1

Paxillin = experiment: Mercator Phosphoarray assay in non-infected A431 cells, Paxillin; type: cell-based, Human
Protocol: as §1

A431 cells = experiment: Marker-induced DMR signal in A431 cells (RWG biosensor); type: cell-based, Human
Protocol: Cell Culture—Human epidermoid carcinoma A431 cells were obtained from American Type Cell Culture. For A431 cell culturing, A431 cells were grown in Dulbecco's modified Eagle's medium (DMEM) supplemented with 10% fetal bovine serum (FBS), 4.5 g/liter glucose, 2 mM glutamine, and antibiotics. about 1-2×10^4 cells at passage 3 to 5 suspended in 50 μl the growth medium were placed in each well. After cell seeding, the cells were cultured at 37° C. under air/5% CO2 until about 95% confluency was reached (about 2 days). Afterwards, the serum medium was replaced with the serum-free DMEM medium, and at the same time adenovirus particles were introduced. The resultant cells were subject to continuous culturing for overnight. […]
The doses of virus (multiplicity of infection (MOI)) used in this experiment were comprised of from 0 to about MOI 6,000. At 20 hrs post infection (PI) the A431 cells were washed with HBSS and real time kinetics of the cell responses were recorded before and after stimulation with 32 nM EGF (targeting EGFR and MAPK pathway and cell adhesion pathway), 25 nM epinephrine (targeting Gs pathway and cell adhesion pathway), 32 nM of bradykinin (targeting Gq and Gs pathway), 25 microM of SFFLR-amide or 25 microM of SLIGKV-amide (both targeting Gq and G12/13 pathways) using the Epic® system and illustrated in FIGS. 5 to 7. […]

adenovirus [2] = experiment: RWG biosensor DMR assay: modulation of the adenovirus-induced response in HeLa cells; type: cell-based; conditions: HeLa cells pretreated 1 h with modulator (10 microM latrunculin A, 10 microM cytochalasin B, 40 microM DIPC), then adenovirus MOI 6,000; assay time about 1 hour
Text: Reagents—Latrunculin A and cytochalasin B were purchased from Sigma Chemical Co. (St. Louis, Mo.). Cell permeable dynamin inhibitor peptide control (DIPC) was obtained from Tocris Chemical Co. (St. Louis, Mo.). Adenoviral particles (Ad-CMV-eGFP) were purchased from Vector Biolabs (Philadelphia, Pa.). Cell-culture-ready Corning® Epic™ 96well biosensor microplates were obtained from Corning Inc (Corning, N.Y.). HeLa cell line was obtained from Americal Type Cell Culture.
Cell Culture—HeLa cells were grown in Earle minimum Essential medium (EMEM) supplemented with 10% fetal bovine serum (FBS), 4.5 g/liter glucose, 2 mM glutamine, and antibiotics. ˜10^4 HeLa cells suspended in 200 μl the appropriate medium containing 10% FBS were placed in each well of a 96well biosensor microplate, and were cultured at 37° C. under air/5% CO2 until about 95% confluency was reached.
Optical biosensor measurements—Corning® Epic® angular interrogation system with transverse magnetic or p-polarized TM0 mode (as described in, for example, U.S. Patent Publication No. US-2004-0263841, U.S. patent application Ser. No. 11/019,439, filed Dec. 21, 2004, and U.S. Patent Publication No. US-2005-0236554.) was used. […] Afterwards, the sensor microplate containing cells was placed into the optical system, and the cell responses were recorded before and after addition of a solution. […]

Akt = conditions: 25 nM epinephrine for 1 hr vs untreated cells
Protocol: as §1

[3] = 32 nM EGF for 30 min vs untreated cells
[4] = 25 nM epinephrine for 1 hr vs untreated cells

Compound: CC[C@]1(O)C[C@@H]2CN(CCc3c([nH]c4ccccc34)[C@@](C(=O)OC)(c3cc4c(cc3OC)N(C)[C@H]3[C@@](O)(C(=O)OC)[C@H](OC(C)=O)[C@]5(CC)C=CCN6CC[C@]43[C@@H]65)C2)C1 [vinblastin]
- trafficking of adenovirus in cells (adenovirus [1]): block the trafficking of adenovirus

Compound: EGF: natural ligand of epidermal growth factor receptor (NSDSECPLSHDGYCLHDGVCMYIEALDKYACNCVVGYIGERCQYRDLKWWELR; Epidermal growth factor; UniProt P01133 971-1023, looked up)
- phosphorylation level of EGFR (EGFR; [3]): increased significantly
- phosphorylation level of FAK (FAK; [3]): increased significantly
- phosphorylation level of paxillin (Paxillin; [3]): only mildly increased
- DMR signal upon stimulation (A431 cells; A431 cells, quiescent for EGF, bradykinin, ATP and thrombin): DMR signal with three distinct and sequential phases

Compound: C=C1[C@@H](C)[C@H]2[C@H](Cc3ccccc3)NC(=O)[C@]23OC(=O)/C=C/[C@H](O)CCC[C@@H](C)C/C=C/[C@H]3[C@@H]1O [cytochalasin B]
- adenovirus-induced P-DMR signal (adenovirus [2]): clearly inhibited the P-DMR signal
- trafficking of adenovirus in cells (adenovirus [1]): block the trafficking of adenovirus

Compound: C/C1=C/C(=O)O[C@@H]2C[C@@H](CC[C@H](C)/C=C\C=C\CC1)O[C@@](O)([C@@H]1CSC(=O)N1)C2 [latrunculin A, Latrunculin A]
- adenovirus-induced P-DMR signal (adenovirus [2]): clearly inhibited the P-DMR signal

Compound: CNC[C@H](O)c1ccc(O)c(O)c1 [epinephrine, Epinephrine]
- phosphorylation level of EGFR (EGFR; [4]): do not seem to be altered
- phosphorylation level of FAK (FAK; [4]): do not seem to be altered
- phosphorylation level of paxillin (Paxillin; [4]): decreases
- phosphorylation level of Akt (Akt): do not seem to be altered
- DMR signal upon stimulation (A431 cells): dose-dependent DMR signal
